Where a SMILES comes first, the peptide text is derived from it. Bridges are numbered along the chain shown (N, C = ends). Roman numbers before positions name the chains, in order. Triazole bridges read from a SMILES are 1,4-linked. Where no end group is shown, it is not given here. Side-chain parts run from the residue outwards. [ ]: non-standard residue; d: D form. The star is where a group is joined. X2 = CN1C(=C/C=C/C=C/C2=[N+](CCCCCC(=O)*)c3ccc(S(=O)(=O)[O-])cc3C2(C)C)C(C)(C)c2cc(S(=O)(=O)O)ccc21; X1 = CN1C(=CC=CC=CC2=[N+](CCCCCC(=O)*)c3ccc(S(=O)(=O)[O-])cc3C2(C)C)C(C)(C)c2cc(S(=O)(=O)O)ccc21; Lys(N3) = [N-]=[N+]=NCCCC[C@H](N)C(=O)O; Cit = NC(=O)NCCC[C@H](N)C(=O)O; d(hCys) = N[C@H](CCS)C(=O)O; PEG3 = NCCOCCOCCOCCC(=O)O; Pra = C#CC[C@H](N)C(=O)O

In series [1] the target is T1, NanoLuc-MDM2 in HEK293 cells (Homo sapiens, UniProt Q00987).
T1 construct: host or cells: HEK293 and HEK293_CMKLR1-eYFP
T1 sequence (Q00987 whole entry): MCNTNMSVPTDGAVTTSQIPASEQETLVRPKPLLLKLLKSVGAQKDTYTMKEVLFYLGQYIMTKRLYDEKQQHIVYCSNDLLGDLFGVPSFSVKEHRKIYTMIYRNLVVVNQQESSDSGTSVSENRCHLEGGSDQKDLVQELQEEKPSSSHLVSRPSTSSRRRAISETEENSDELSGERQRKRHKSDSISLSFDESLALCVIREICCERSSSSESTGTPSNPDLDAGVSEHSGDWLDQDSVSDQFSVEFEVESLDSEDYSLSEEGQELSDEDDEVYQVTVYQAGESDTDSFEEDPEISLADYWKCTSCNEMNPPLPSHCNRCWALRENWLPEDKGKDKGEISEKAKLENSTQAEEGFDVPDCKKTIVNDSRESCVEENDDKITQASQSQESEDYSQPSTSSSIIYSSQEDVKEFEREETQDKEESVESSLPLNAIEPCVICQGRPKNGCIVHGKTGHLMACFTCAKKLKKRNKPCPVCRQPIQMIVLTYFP
In words: Intracellular Cy5-PMIγ/NanoLuc-MDM2 BRET, cells without CMKLR1. As to conditions: cells without CMKLR1, 72 h. The format is cell-based. The method, then:
4 Intracellular bioluminescence resonance energy transfer (BRET) between NanoLuc-MDM2 and Cy5-labeled PMIγ in living cells. (A) Peptides were incubated on HEK293 and HEK293_CMKLR1-eYFP cells for 72 h before BRET was measured. To evaluate the receptor-specific effect, ΔBRET was calculated by subtracting netBRET of cells without CMKLR from netBRET from cells with CMKLR1. Mean ± SEM from three independent experiments performed in duplicate. […] (B) Calculated ΔBRET values after different incubation times of peptides on the cells. (C, D) Same as panels (A) and (B), but peptide uptake was competed by coincubation with 30 μM peptide 1 (N3-cC9). […]
HEK293 and stably transfected HEK293_CMKLR1-eYFP cells were seeded at 15,000 cells per well into poly-ᴅ-lysine coated 96-well plates (white Nunc MicroWell, Thermo). […] After 10 min incubation, luminescence was measured in a Spark multimode plate reader (Tecan), and BRET ratio was calculated by […]
dividing the Cy5-signal (670±30 nm) by the NanoLuc signal (450±20 nm). netBRET was calculated by subtracting the BRET ratio from cells which were incubated without peptide. To calculate the CMKLR1-specific effect, ΔBRET was calculated by subtracting the netBRET value obtained in cells without CMKLR1 from netBRET obtained in cells with CMKLR1. After the initial readout, a kinetic BRET displacement was performed with the same cells. […]

The subject of a further series is HMEC-1 cells. Nature of the series: Fluorescence correlation spectroscopy (FCS) in the cytosol. As to conditions: HMEC-1, applied concentration 1000 nM, 72 h; for cytosolic concentration, mean ± SD: FCS at 22 °C. The method, then:
(§1) 3 Quantification of Cy5-labeled peptides in the cytosol. (A) RP-HPLC (λex = 640 nm, λem = 670 nm) of cleavage products of Cy5-labeled peptides in the lysate of HEK293_CMKLR1-eYFP cells after incubation with 1 μM peptide for different durations. […] (B) Representative fluorescence correlation spectroscopy (FCS) autocorrelation curves of Cy5-labeled peptides measured in the cytosol of HEK293_CMKLR1-eYFP cells after 72 h of incubation. Measured curves were fitted with a model for hindered 3D diffusion and diffusion time t D and anomalous coefficient α were calculated from the fit. Autocorrelation data represent mean ± SD of up to 10 consecutive 5 s measurements in a single cell. (C) Intracellular concentrations of Cy5-labeled peptides after 72 h incubation calculated from the fitted autocorrelation curves obtained in HEK293_CMKLR1-eYFP, HMEC-1, and THP-1 cells. Each data point corresponds to FCS measurements from the cytosol of a single cell. Median with the interquartile range is shown. Data from three independent experiments. Statistical comparison by log-normal unpaired t test. ***p ≤ 0.001, **p ≤ 0.01, *p ≤ 0.05, ns – not significant. […] (D) Calculated diffusion coefficients from the fitted autocorrelation curves. Median with the interquartile range is shown. […]
(§2) Fluorescence correlation spectroscopy (FCS)
(§3) Cytosolic delivery was quantified by FCS as has been described previously.3–5 Stably transfected HEK293_CMKLR1-eYFP cells were seeded at 30,000 cells per well and HMEC-1 cells at 10,000 cells per well into poly-ᴅ-lysine-coated 8-well microscopy slides (ibidi) in their respective cell culture medium. THP-1 cells were resuspended in fresh cell culture medium at 100,000 cells/mL in 500 µL cell culture medium in uncoated 12-well plates. The next day, dilutions of Cy5-labeled peptides were added to the cells and incubated for 72 h. Cell membranes of HMEC-1 and THP-1 cells were stained with 20 µg/mL Alexa Fluor 488-labeled concanavalin A (Invitrogen) for 20 min to enable identification of the cytosol. Nuclei were counterstained with Hoechst33342, and cells were washed with FluoroBriteTM DMEM (Gibco) + 25 mM HEPES (pH 7.4). After washing, THP-1 cells were transferred to poly-ᴅ-lysine-coated 8-well microscopy slides and allowed to sediment and adhere for 1 h. Confocal imaging and FCS were performed at 22 °C on a TCS SP8 FALCON microscope (Leica) with a Plan-Apochromat 40x/1,10 water immersion objective and HyD single molecule detector (Leica). The 638 nm laser line was used for excitation at 0.5% power and […]

Another series deals with HEK293_CMKLR1-eYFP cells. The description is as above. As to conditions: 72 h; for cytosolic concentration, median (IQR) / cytosolic concentration, mean ± SD: FCS at 22 °C. The method, then:
as §1, §2, §3

The mark [2] stands for this setting: applied concentration 10 nM, single cells, three independent experiments.
The mark [3] stands for this setting: applied concentration 1000 nM (1 μM).
Where [4] appears, read: applied concentration 10000 nM (10 μM).

With `CC(=O)N[C@@H](CCCCn1cc(C[C@H](NC(=O)CCOCCOCCOCCNC(=O)[C@H](CCCNC(N)=O)NC(=O)[C@@H](NC(=O)[C@H](CCC(=O)O)NC(=O)CNC(=O)CNC(=O)[C@@H](CCCNC(=N)N)NC(=O)[C@@H](CC(C)C)NC(=O)[C@@H](CC(C)C)NC(=O)[C@@H](C)NC(=O)[C@@H](CCC(=O)O)NC(=O)[C@@H](Cc2ccccc2)NC(=O)[C@@H](C)NC(=O)[C@@H](CC(C)C)NC(=O)[C@H]2CCCN2C(=O)[C@@H](Cc2c[nH]c3ccccc23)NC(=O)[C@@H](Cc2c[nH]c3ccccc23)NC(=O)[C@@H](CC(=O)O)NC(=O)CCOCCOCCOCCNC(=O)CCCCC[N+]2=C(/C=C/C=C/C=C3N(C)c4ccc(S(=O)(=O)O)cc4C3(C)C)C(C)(C)c3cc(S(=O)(=O)[O-])ccc32)C(C)C)C(N)=O)nn1)C(=O)N[C@@H](Cc1ccc(O)cc1)C(=O)N[C@@H](Cc1ccccc1)C(=O)N1CCC[C@H]1C(=O)N[C@@H]1CCSSC[C@@H](C(=O)O)NC(=O)[C@H](Cc2ccccc2)NC(=O)[C@H](C)NC(=O)[C@H](Cc2ccccc2)NC(=O)[C@H](CCC(N)=O)NC1=O` [2Cy] (I: {X2-PEG3}-[dD][dW][dW][dP][dL][dA][dF][dE][dA][dL][dL][dR]GGEV[Cit][PEG3][Pra]-NH2 / II: Ac-[Lys(N3)]YFP[d(hCys)]QFAFC-OH; triazole I:19-II:1; disulfide II:5-II:10), in series [1], the “BRET between NanoLuc-MDM2 and Cy5-labeled peptide” value is recorded as “only a minor signal”. Besides, the “cytosolic concentration, median (IQR)” value in the series on HMEC-1 cells was 6.4 (3.7–9.3) nM; with HEK293_CMKLR1-eYFP cells (applied concentration 10 nM), 6.2 (3.1–9.1) nM; with HEK293_CMKLR1-eYFP cells (applied concentration 100 nM), 6.8 (3.3–13.0) nM; in the series with HEK293_CMKLR1-eYFP cells (setting [3]), 43.1 (19.0–99.4) nM; with HEK293_CMKLR1-eYFP cells (setting [4]), 106 nM. Moreover, the “cytosolic concentration, mean ± SD” value is 7.8 ± 5.4 nM in the series with HMEC-1 cells; 8.4 ± 7.8 nM in the series with HEK293_CMKLR1-eYFP cells (setting [2]); 11.6 ± 14.6 nM in the series with HEK293_CMKLR1-eYFP cells (applied concentration 100 nM); 78.6 ± 83.2 nM in the series with HEK293_CMKLR1-eYFP cells (applied concentration 1000 nM); 161 ± 128 nM in the series on HEK293_CMKLR1-eYFP cells (applied concentration 10000 nM).
Take “I: GSVSHHHHHHGGHHHH[PEG3][dK]([PEG3-X1])[dD][dW][dW][dP][dL][dA][dF][dE][dA][dL][dL][dR]GEV[Cit][PEG3][Pra]-NH2 / II: Ac-[Lys(N3)]YFP[d(hCys)]QFAFC-OH (triazole I:36-II:1; disulfide II:5-II:10) [3Cy]”: in series [1], the “BRET between NanoLuc-MDM2 and Cy5-labeled peptide” value is recorded as “strong BRET at 10 μM”. The “cytosolic concentration, median (IQR)” value was 7.0 (5.2–12.4) nM in the series with HMEC-1 cells; 5.5 (3.2–9.5) nM in the series on HEK293_CMKLR1-eYFP cells (applied concentration 10 nM); 10.2 (5.2–32.1) nM in the series with HEK293_CMKLR1-eYFP cells (applied concentration 100 nM); 98.8 nM with HEK293_CMKLR1-eYFP cells (setting [3]); 228 nM in the series on HEK293_CMKLR1-eYFP cells (setting [4]). Besides, the “cytosolic concentration, mean ± SD” value worked out at 20.1 ± 57.2 nM with HMEC-1 cells; 6.6 ± 5.0 nM in the series with HEK293_CMKLR1-eYFP cells (setting [2]); 23.5 ± 40.2 nM in the series on HEK293_CMKLR1-eYFP cells (applied concentration 100 nM); 138 ± 122 nM in the series on HEK293_CMKLR1-eYFP cells (applied concentration 1000 nM); 308 ± 257 nM with HEK293_CMKLR1-eYFP cells (applied concentration 10000 nM). Besides, the cellular stress entry with HEK293_CMKLR1-eYFP cells (10 μM, data not shown) is recorded as “showed signs of cellular stress”.

Source of the values: PMC12814185, “Receptor-Mediated Shuttling of a D‑Amino Acid Peptide Achieves High Nanomolar Cytosolic Concentrations” (Journal of the American Chemical Society, 2025).
